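Step 1: Grow cells in 96-well plates. Step 2: Expose to compound for 48 hours at 5 concentrations. Step 3: Interpolate endpoints linearly; if unreached, use highest concentration. GI50 marks 50% less growth.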 The source made the active and inactive calls. Rule as the data show it: active = GI50 up to about 1.1 µM and inactive = higher.
Experiments:
Test in all cases: NCI anticancer screen, dose series, 48 h
[1] = tested on: HOP-18
[2] = tested on: KM-20L2
[3] = tested on: M19-MEL
[4] = tested on: DMS-114
[5] = tested on: DLD-1
[6] = tested on: DMS-273
[7] = tested on: Hs-578T
[8] = tested on: SNB-78
[9] = tested on: RXF 631

Question: `CC(=O)OCC1OC(Sc2ccccn2)C=CC1OC(C)=O` (configuration not stated) was tested. Which GI50 [1] did it give?
Answer: > 100 µM (inactive)

Question: And the GI50 [2]?
Answer: > 100 µM (inactive)

Question: And the GI50 [3]?
Answer: > 100 µM (inactive)

Question: What about the GI50 [4] of the same compound?
Answer: > 100 µM (inactive)

Question: What about the GI50 [5] of the same compound?
Answer: > 100 µM (inactive)

Question: What about the GI50 [6] of the same compound?
Answer: > 100 µM (inactive)

Question: With `N=C(N)CCNC(=O)C1CCC(N)=N1` (configuration not stated) as the compound, how does the GI50 [7] read?
Answer: 8.36 µM (inactive)

Question: For `CCC(=O)O[C@H]1CC[C@H]2[C@@H]3CCC4=C/C(=N/NC(=O)c5cccc6c(=O)c7ccccc7[nH]c56)CC[C@]4(C)[C@H]3CC[C@]12C`, which GI50 [7] is on record?
Answer: > 25 µM (inactive)

Question: Which GI50 [1] does the source give for `C=CC1=C(C)/C(=C/C2=NC(=C\c3[nH]c(CC4NC(=O)C(C)/C4=C\C)c(C)c3CCC(=O)O)/C(CC(=O)O)=C2C)NC1=O` (configuration not stated) here?
Answer: > 100 µM (inactive)

Question: What about the GI50 [8] of the same compound?
Answer: > 100 µM (inactive)

Question: What about the GI50 [9] of the same compound?
Answer: > 100 µM (inactive)

Question: And the GI50 [2]?
Answer: > 100 µM (inactive)

Question: And the GI50 [3]?
Answer: > 100 µM (inactive)

Question: And the GI50 [4]?
Answer: > 100 µM (inactive)

Question: And the GI50 [5]?
Answer: > 100 µM (inactive)

Question: Which GI50 [7] does the source give for `COC(=O)/C(C#N)=C(\Nc1ccccc1)N1CCOCC1` here?
Answer: > 100 µM (inactive)

Question: Which GI50 [7] does the source give for `CC1CC(C)C2=NOS3=C2C1=NO3` (configuration not stated) here?
Answer: > 100 µM (inactive)

Question: What does the source list for `COC(=O)/C(=C/c1ccc(OC)cc1)C(C(=O)O)=C1CCCCC1`?
Answer: GI50 [8]: > 100 µM (inactive); GI50 [9]: > 100 µM (inactive); GI50 [2]: > 100 µM (inactive); GI50 [3]: > 100 µM (inactive); GI50 [5]: > 100 µM (inactive); GI50 [6]: > 100 µM (inactive)

Question: How did the GI50 [8] turn out when `Cc1ccc(NC(=O)CC2C(=O)Nc3ccccc3S2(=O)=O)cc1C` (configuration not stated) was run?
Answer: > 100 µM (inactive)

Question: What about the GI50 [9] of the same compound?
Answer: > 100 µM (inactive)

Question: And the GI50 [2]?
Answer: > 100 µM (inactive)

Question: What about the GI50 [3] of the same compound?
Answer: > 100 µM (inactive)

Question: What about the GI50 [4] of the same compound?
Answer: > 100 µM (inactive)

Question: What about the GI50 [5] of the same compound?
Answer: > 100 µM (inactive)

Question: What about the GI50 [6] of the same compound?
Answer: > 100 µM (inactive)

Question: With `CC[n+]1c(/C=C/c2cc(C(=O)OC)n3c2sc2ccccc23)sc2ccccc21` as the compound, how does the GI50 [2] read?
Answer: 17.8 µM (inactive)

Question: And the GI50 [3]?
Answer: 18.9 µM (inactive)

Question: What about the GI50 [4] of the same compound?
Answer: 19.2 µM (inactive)

Question: And the GI50 [6]?
Answer: 17.6 µM (inactive)

Question: How did the GI50 [7] turn out when `COc1cc(/C=C2\N=C(c3ccccc3)N(c3ccc(C(=O)c4ccccc4)cc3N3C(=O)/C(=C/c4ccc(O)c(OC)c4)N=C3c3ccccc3)C2=O)ccc1O` was run?
Answer: 10.1 µM (inactive)

Question: How did the GI50 [7] turn out when `CCOC(=O)c1cccc(NC(=O)CCl)c1` was run?
Answer: 2.93 µM (inactive)

Question: Which GI50 [7] does the source give for `O=C(O)c1cc2ccccc2oc1=O` [COUMARIN-3-CARBOXYLIC ACID] here?
Answer: > 100 µM (inactive)

Question: For `N#Cc1c(N)oc(-c2ccc([N+](=O)[O-])cc2)c1C#N`, which GI50 [7] is on record?
Answer: 25.6 µM (inactive)

Question: `O/N=C1\C/C(=N\O)c2c(Br)sc(Br)c21` was tested. Which GI50 [7] did it give?
Answer: 0.216 µM (active)

Question: Which GI50 [7] does the source give for `C/C(=N\Nc1nc2ccccc2n1C)c1ccc2ccccc2n1` here?
Answer: 15.4 µM (inactive)

Question: How did the GI50 [7] turn out when `CC(=O)Oc1ccc(/C=C/C(=O)OCCOC(=O)/C=C/c2ccc(OC(C)=O)c(OC(C)=O)c2)cc1OC(C)=O` was run?
Answer: 16.8 µM (inactive)

Question: `CN(C)c1ccc(/C=N/C23CC4CC(CC(C4)C2)C3)cc1` was tested. Which GI50 [8] did it give?
Answer: > 100 µM (inactive)

Question: And the GI50 [2]?
Answer: > 100 µM (inactive)

Question: And the GI50 [3]?
Answer: > 100 µM (inactive)

Question: And the GI50 [4]?
Answer: > 100 µM (inactive)

Question: And the GI50 [6]?
Answer: > 100 µM (inactive)

Question: `CCCCCCC1CCC2CCCC(C)N12` (configuration not stated) was tested. Which GI50 [1] did it give?
Answer: 29.2 µM (inactive)

Question: And the GI50 [2]?
Answer: 25.2 µM (inactive)

Question: And the GI50 [3]?
Answer: 27.7 µM (inactive)

Question: And the GI50 [4]?
Answer: 37 µM (inactive)

Question: And the GI50 [6]?
Answer: 27.4 µM (inactive)

Question: For `CS(=O)(=O)c1ccc(-c2cc(-c3ccc(S(C)(=O)=O)cc3)[n+](-c3cc(-c4ccccc4)c([O-])c(-c4ccccc4)c3)c(-c3ccc(S(C)(=O)=O)cc3)c2)cc1`, which GI50 [1] is on record?
Answer: > 100 µM (inactive)

Question: What about the GI50 [8] of the same compound?
Answer: > 100 µM (inactive)

Question: What about the GI50 [9] of the same compound?
Answer: > 100 µM (inactive)

Question: And the GI50 [2]?
Answer: > 100 µM (inactive)

Question: What about the GI50 [3] of the same compound?
Answer: > 100 µM (inactive)

Question: What about the GI50 [4] of the same compound?
Answer: > 100 µM (inactive)

Question: What about the GI50 [6] of the same compound?
Answer: > 100 µM (inactive)

Question: How did the GI50 [7] turn out when `CCCCc1ccc2[n+](c1)C(C(=O)OCC)=PC2` (configuration not stated) was run?
Answer: 66.7 µM (inactive)

Question: Which GI50 [7] does the source give for `CCOP(=O)(C=C=C1CCC2[C@@H]3CCc4cc(OC)ccc4C3CC[C@]12C)OCC` (some centres not stated) here?
Answer: 20.5 µM (inactive)

Question: Which GI50 [7] does the source give for `CC(=O)O[C@H]1/C(=C/c2ccncc2)C[C@H]2[C@@H]3CC=C4C[C@@H](N5CCCC5)CC[C@]4(C)[C@H]3CC[C@]12C` here?
Answer: 16.6 µM (inactive)

Question: Which GI50 [7] does the source give for `CCOP(=O)(CN1CCNCCNCC1)OCC` here?
Answer: > 100 µM (inactive)

Question: With `Cc1cn(CCOCCOC(=O)NC(CCCNC(=N)N)C(=O)O)c(=O)[nH]c1=O` (configuration not stated) as the compound, how does the GI50 [7] read?
Answer: > 100 µM (inactive)

Question: With `O=C1C(=C(C(=O)c2ccccc2)C(=O)c2ccccc2)OC(c2ccccc2)=C1C(=O)c1ccccc1` as the compound, how does the GI50 [7] read?
Answer: 11.5 µM (inactive)

Question: How did the GI50 [7] turn out when `Nc1nc(N)c2ncn(Cc3ccccc3CCl)c2n1` was run?
Answer: > 100 µM (inactive)

Question: For `CCOC(=O)c1cc(-c2ccn(C(C)=O)c2)c(-c2cc(C)co2)[nH]1`, which GI50 [7] is on record?
Answer: > 100 µM (inactive)

Question: What does the source list for `Cc1ccc(/N=N/C2S/C(=C(\C#N)c3nc4ccccc4[nH]3)N(c3ccccc3)C2=O)cc1` (configuration not stated)?
Answer: GI50 [8]: > 100 µM (inactive); GI50 [2]: > 100 µM (inactive); GI50 [3]: > 100 µM (inactive); GI50 [4]: 65.5 µM (inactive); GI50 [5]: > 100 µM (inactive); GI50 [6]: > 100 µM (inactive)

Question: With `CC12ON=C(c3ccccc3)N1C=CN1C(c3ccccc3)=NOC12` (configuration not stated) as the compound, how does the GI50 [7] read?
Answer: > 100 µM (inactive)

Question: How did the GI50 [7] turn out when `CCc1c2c(cc3c1CC1(C3)Cc3cc4c(c(C(=O)OC)c3C1)CCCC4)CCCC2` (configuration not stated) was run?
Answer: 19.2 µM (inactive)

Question: With `Cc1cc2c(cc1C)C(=O)C1(C2)Cc2cc3c(cc2C1=O)CCC3` (configuration not stated) as the compound, how does the GI50 [7] read?
Answer: > 100 µM (inactive)

Question: What does the source list for `N#Cc1cc([N+](=O)[O-])ccc1NC(=O)/C(=N/N)C(C(=O)c1ccc(Cl)c(Cl)c1)C1OC(=O)c2ccccc21` (configuration not stated)?
Answer: GI50 [8]: 75 µM (inactive); GI50 [3]: 26.9 µM (inactive); GI50 [4]: 28.4 µM (inactive); GI50 [5]: 35 µM (inactive)

Question: Which results are given for `COc1cc(C2C(Cl)C(=O)N2NC(=O)c2ccc(N)cc2)ccc1O` (configuration not stated)?
Answer: GI50 [8]: 44.2 µM (inactive); GI50 [2]: 63.7 µM (inactive); GI50 [3]: 55.5 µM (inactive); GI50 [5]: 29.4 µM (inactive); GI50 [6]: 47.5 µM (inactive)

Question: Which GI50 [7] does the source give for `O=CC1C[C@@H](N2C(=O)O[C@@H](c3ccccc3)[C@H]2c2ccccc2)[C@@H]1COCc1ccccc1` (some centres not stated) here?
Answer: 25.6 µM (inactive)

Question: With `CCOC(=O)CNc1c(OCc2ccccc2)c(=O)c1=O` as the compound, how does the GI50 [7] read?
Answer: > 100 µM (inactive)

Question: `CC(C)SC(C)(NC(=O)C1C(C)(C)CCC1(C)C)C(=O)O` (configuration not stated) was tested. Which GI50 [7] did it give?
Answer: > 100 µM (inactive)

— ChEMBL document CHEMBL1201862, “PubChem BioAssay data set” (2004)
